# Measurements from patent US20060008491A1, “Eremophilone and eremophilone derivatives for pest control” (priority 2002, published 2006).
# System: Coptotermes acinaciformis
# Format: in vivo
# Settings: HPLC fractions of steam distilled oil
# Description: A number of samples were assessed for termiticidal activity. The steam distilled oil product was separated into thirty fractions using reverse phase preparative HPLC, methanol:water (80:20). Fractions were re-analysed by GC-MS and recombined to provide eight fractions. Three fractions contained pure components, the other fractions contained mixtures of minor components of the oil. Six fractions together with the whole oil distillate, and the methanol and hexane extracts were tested on the workers of the termites Nasutitermes walkeri and Coptotermes acinaciformis as follows.
# Twenty uniform termite workers were transferred to 90 mm diam. petri dishes lined with the same diameter moistened filter paper (Whatman No 2). […]
# A 5 ml aliquot was applied to each petri dish with a Potter precision spray tower as described by Herron et al (995). The average weight of the solution sprayed on each dish was calculated to be 3.95 mg/cm^2. […] Mortality was normally recorded 24 h after treatment. […] Probit analysis was carried out for dose-mortality data and heterogeneity of regressions was determined by the Pearson chi-squared characteristic.
smiles,measurement,value
"C=C(C)[C@@H]1CC(=O)C2=CCC[C@H](C)[C@@]2(C)C1 [EM-1, Eremophilone]",termiticidal activity,significant termiticidal activity
